Measured values: US12637453B2, “Pyrazolopyridine inhibitors of c-Jun-n-Terminal kinases and uses thereof” (Dana-Farber Cancer Institute, Inc., priority 2019, dated 2026)

Assays:
Type in all cases: biochemical
JNK2 = JNK2 (Homo sapiens, UniProt P45984); assay: IC50 assay for JNK kinase inhibition, JNK2
JNK3 = JNK3 (Homo sapiens, UniProt P53779); assay: IC50 assay for JNK kinase inhibition, JNK3
JNK1 = JNK1 (Homo sapiens, UniProt P45983); assay: IC50 assay for JNK kinase inhibition, JNK1
Chain of JNK1 (P45983 whole entry): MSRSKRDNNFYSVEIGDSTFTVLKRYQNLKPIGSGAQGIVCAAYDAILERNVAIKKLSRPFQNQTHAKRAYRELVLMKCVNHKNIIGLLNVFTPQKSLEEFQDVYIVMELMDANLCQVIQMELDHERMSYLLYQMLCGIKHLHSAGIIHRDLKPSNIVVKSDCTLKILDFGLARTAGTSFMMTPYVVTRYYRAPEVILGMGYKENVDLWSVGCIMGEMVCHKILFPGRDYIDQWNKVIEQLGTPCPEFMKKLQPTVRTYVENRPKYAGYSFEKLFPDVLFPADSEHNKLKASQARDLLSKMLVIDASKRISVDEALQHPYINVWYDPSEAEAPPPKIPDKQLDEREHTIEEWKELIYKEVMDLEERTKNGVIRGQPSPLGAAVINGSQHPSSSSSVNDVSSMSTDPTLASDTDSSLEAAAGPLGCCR

Chain of JNK3 (P53779 whole entry): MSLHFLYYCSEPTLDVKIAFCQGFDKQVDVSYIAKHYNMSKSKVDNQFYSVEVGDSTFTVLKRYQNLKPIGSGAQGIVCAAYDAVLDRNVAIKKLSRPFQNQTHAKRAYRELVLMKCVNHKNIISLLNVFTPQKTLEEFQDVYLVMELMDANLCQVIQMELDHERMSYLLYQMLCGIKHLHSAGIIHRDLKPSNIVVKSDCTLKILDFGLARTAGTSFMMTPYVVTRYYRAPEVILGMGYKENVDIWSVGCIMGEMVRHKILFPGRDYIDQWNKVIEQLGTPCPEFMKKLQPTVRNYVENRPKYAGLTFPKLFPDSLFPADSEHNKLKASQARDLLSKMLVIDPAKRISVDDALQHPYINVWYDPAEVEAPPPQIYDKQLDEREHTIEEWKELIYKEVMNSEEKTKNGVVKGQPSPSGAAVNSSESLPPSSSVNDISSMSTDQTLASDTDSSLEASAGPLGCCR
Chain of JNK2 (P45984 whole entry): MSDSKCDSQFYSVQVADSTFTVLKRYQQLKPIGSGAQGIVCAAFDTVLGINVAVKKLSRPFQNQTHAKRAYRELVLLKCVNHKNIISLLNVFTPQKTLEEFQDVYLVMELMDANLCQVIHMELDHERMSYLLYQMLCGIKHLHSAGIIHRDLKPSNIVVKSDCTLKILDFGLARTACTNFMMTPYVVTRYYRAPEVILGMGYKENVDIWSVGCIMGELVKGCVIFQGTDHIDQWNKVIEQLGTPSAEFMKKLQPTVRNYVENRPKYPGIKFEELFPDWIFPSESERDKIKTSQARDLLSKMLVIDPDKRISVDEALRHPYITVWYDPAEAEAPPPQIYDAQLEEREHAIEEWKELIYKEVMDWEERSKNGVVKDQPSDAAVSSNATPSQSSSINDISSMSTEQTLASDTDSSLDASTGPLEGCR

IC50 (JNK2) [nM]	IC50 (JNK3) [nM]	IC50 (JNK1) [nM]	Compound
3.65	2.36	44.7	CN(C)C/C=C/C(=O)Nc1ccc(C(=O)N2CCC[C@H](Nc3nccc(-c4c(-c5ccccc5)nn5ccccc45)n3)C2)cc1 [I-1, (S,E)-4-(dimethylamino)-N-(4-(3-((4-(2-phenylpyrazolo[1,5-a]pyridin-3-yl)pyrimidin-2-yl)amino)piperidine-1-carbonyl)phenyl)but-2-enamide]
11	20	64	CN(C)CCCC(=O)Nc1ccc(C(=O)N2CCC[C@H](Nc3nccc(-c4c(-c5ccccc5)nn5ccccc45)n3)C2)cc1 [I-2, (S)-4-(dimethylamino)-N-(4-(3-((4-(2-phenylpyrazolo[1,5-a]pyridin-3-yl)pyrimidin-2-yl)amino)piperidine-1-carbonyl)phenyl)butanamide]
5.67	16.2	26	C=CC(=O)Nc1ccc(C(=O)N2CCC[C@H](Nc3nccc(-c4c(-c5ccccc5)nn5ccccc45)n3)C2)cc1 [I-3, (S)-N-(4-(3-((4-(2-phenylpyrazolo[1,5-a]pyridin-3-yl)pyrimidin-2-yl)amino)piperidine-1-carbonyl)phenyl)acrylamide]
2.88	22.5	21.4	Nc1ccc(C(=O)N2CCC[C@H](Nc3nccc(-c4c(-c5ccccc5)nn5ccccc45)n3)C2)cc1 [I-4, (S)-(4-aminophenyl)(3-((4-(2-phenylpyrazolo[1,5-a]pyridin-3-yl)pyrimidin-2-yl)amino)piperidin-1-yl)methanone]
24	15	569	CN(C)C/C=C/C(=O)Nc1ccc(C(=O)N2CCC[C@@H](Nc3nccc(-c4c(-c5ccccc5)nn5ccccc45)n3)C2)cc1 [I-5, (R,E)-4-(dimethylamino)-N-(4-(3-((4-(2-phenylpyrazolo[1,5-a]pyridin-3-yl)pyrimidin-2-yl)amino)piperidine-1-carbonyl)phenyl)but-2-enamide]
40	1090	278	CN(C)CCCC(=O)Nc1ccc(C(=O)N2CCC[C@@H](Nc3nccc(-c4c(-c5ccccc5)nn5ccccc45)n3)C2)cc1 [I-6, (R)-4-(dimethylamino)-N-(4-(3-((4-(2-phenylpyrazolo[1,5-a]pyridin-3-yl)pyrimidin-2-yl)amino)piperidine-1-carbonyl)phenyl)butanamide]
2.75	25	12.5	CN(C)C/C=C/C(=O)Nc1ccc(C(=O)N2CC[C@@H](Nc3nccc(-c4c(-c5ccccc5)nn5ccccc45)n3)C2)cc1 [I-7, (R,E)-4-(dimethylamino)-N-(4-(3-((4-(2-phenylpyrazolo[1,5-a]pyridin-3-yl)pyrimidin-2-yl)amino)pyrrolidine-1-carbonyl)phenyl)but-2-enamide]
5.59	21.4	73.4	CN(C)CCCC(=O)Nc1ccc(C(=O)N2CC[C@@H](Nc3nccc(-c4c(-c5ccccc5)nn5ccccc45)n3)C2)cc1 [I-8, (R)-4-(dimethylamino)-N-(4-(3-((4-(2-phenylpyrazolo[1,5-a]pyridin-3-yl)pyrimidin-2-yl)amino)pyrrolidine-1-carbonyl)phenyl)butanamide]
15.9	96.1	403	CN(C)C/C=C/C(=O)Nc1ccc(C(=O)N2CCCC[C@@H](Nc3nccc(-c4c(-c5ccccc5)nn5ccccc45)n3)C2)cc1 [I-9, (R,E)-4-(dimethylamino)-N-(4-(3-((4-(2-phenylpyrazolo[1,5-a]pyridin-3-yl)pyrimidin-2-yl)amino)azepane-1-carbonyl)phenyl)but-2-enamide]
7.88	48.1	243	CN(C)CCCC(=O)Nc1ccc(C(=O)N2CCCC[C@@H](Nc3nccc(-c4c(-c5ccccc5)nn5ccccc45)n3)C2)cc1 [I-10, (R)-4-(dimethylamino)-N-(4-(3-((4-(2-phenylpyrazolo[1,5-a]pyridin-3-yl)pyrimidin-2-yl)amino)azepane-1-carbonyl)phenyl)butanamide]
